Experimental data taken from US8603764B2, “EphA kinase cancer diagnostic” (Case Western Reserve University, priority 2009, dated 2013).
Entries after “also recorded” stand apart in the source; their conditions may differ.

Tests used:
pS897-EphA2 = experiment: Immunoblot with polyclonal anti-pS897-EphA2, U373 cells; format: cell-based, human; settings: for induction of pS897-EphA2: serum-starved U373 cells, 10 ng/ml growth factor, 10 min; for serum-induced pS897-EphA2 under FGFR inhibition: U373 cells pretreated with 10 μM SU5402 or 100 nM BU for 30 min, 10% FBS 10 min
Experimental: For stationary cells, sub-confluent cells were stimulated with 1 μg/ml ephrinA1-Fc for different times. To study the signaling events in migrating cells, the monolayer of freshly confluent cells was wounded by repeated scratch-wounding using a multichannel pipette. By doing so, the cells on the wound edges were induced to migrate. Four hours after wounding cells were stimulated with 1 μg/ml ephrinA1-Fc for different times. To look at the serum-induced signaling, cells were starved in serum-free medium overnight before stimulation or wounding. Both stationary and wounded cells were stimulated with 10% FBS in the presence of 1 μg/ml Fc or ephrinA1-Fc. Immunoprecipitation and immunoblot were performed as described previously (Nat. Cell Biol. 2, 62-69).

U373 cells = experiment: Boyden chamber chemotactic cell migration assay; format: cell-based, human; settings: 10 ng/ml growth factor or 10 μM LPA
Experimental: The chemotactic cell migration was carried out as described previously (J. Cell Biol. 162, 1281-1292). Briefly, both sides of the filter were coated with 10 μg/ml rat tail collagen type I at 4° C. overnight. 1×10^5 cells in serum-free medium containing 0.1% BSA were plated in the top of insert. EphrinA1-Fc or Fc was added to a final concentration of 1 μg/ml to the lower chamber together 5% FBS or various growth factors. Cells were allowed to migrate for 4 hours and then fixed with 4% paraformaldehyde. After staining with 0.5% crystal violet, cells that have passed through the filter and stayed on the undersides of inserts were counted.

| Compound | serum-induced pS897-EphA2 (S897 phosphorylation) (pS897-EphA2; serum-starved U373 cells pretreated with 10 μM inhibitor (SH-5 30 min; LY294002 1 hour), FBS 10 min) | chemoattractant activity (chemotactic cell migration) (U373 cells) | induction of pS897-EphA2 (pS897-EphA2) | serum-induced pS897-EphA2 under FGFR inhibition (pS897-EphA2) |
| --- | --- | --- | --- | --- |
| CCCCCCCCCCCCCCCCCCOC[C@H](COP(=O)(O)O[C@H]1[C@H](O)[C@@H](O)[C@H](O)C[C@H]1OC)OC [SH-5, reference compound] | suppressed S897 phosphorylation; also recorded: abolishes serum-induced pS897-EphA2 | – | – | – |
| HGF: growth factor implicated in development of human GBM | – | potent chemoattractants | capable of inducing pS897-EphA2 | – |
| COc1cc(OC)cc(-c2cc3cnc(N)nc3nc2NC(=O)NC(C)(C)C)c1 [BU, 1-(2-Amino-6-(3,5-dimethoxyphenyl)pyrido[2,3-d]pyrimidin-7-yl)-3-tert-butyl urea, reference compound] | – | – | – | not sufficient for inhibiting serum-induced pS897-EphA2 |
| Cc1c[nH]c(/C=C2\C(=O)Nc3ccccc32)c1CCC(=O)O [SU5402, reference compound] | – | – | – | not sufficient for inhibiting serum-induced pS897-EphA2 |
| EGF: growth factor implicated in development of human GBM (NSDSECPLSHDGYCLHDGVCMYIEALDKYACNCVVGYIGERCQYRDLKWWELR; UniProt P01133 971-1023, looked up) | – | potent chemoattractants | capable of inducing pS897-EphA2 | – |
| bFGF: growth factor implicated in development of human GBM | – | potent chemoattractants | capable of inducing pS897-EphA2 | – |
| PDGF | – | potent chemoattractants | capable of inducing pS897-EphA2 | – |
